row,melting point,SMILES
1,203 to 204 °C,COc1cccc2cc(C(=O)Oc3ccc(Cl)cn3)c(=O)oc12
2,119 to 121 °C,COc1cccc(C(=O)c2cc3ccccc3[nH]2)c1
3,56 to 59 °C,O=C(Nc1ccc2c(c1)CCC2)OCc1ccccc1
4,208 to 209 °C,COCC(=O)Nc1cc(C(N)=O)cc(NC(=O)COC)c1Cl
5,102 to 104 °C,CCOC(=O)c1cccc(Cn2cnc3ccncc32)c1
6,60 to 70 °C,Cc1ccc(S(=O)(=O)N2C(=O)N(c3ccc(Cl)cc3)C(C)(O)C2O)cc1 (configuration not stated)
7,158 °C,CCOc1ccc2c(c1)n(C(C)(C)CC(C)(C)C)c(=O)n2S(=O)(=O)c1ccc([N+](=O)[O-])cc1OC
8,71 to 73 °C,CSc1ccc(C)cc1[N+](=O)[O-]
9,146 to 149 °C,CCOC(=O)CSc1nc(Cl)cc(NN=Cc2ccc(F)cc2)n1
10,165 °C,Cc1nc2ccccc2c(=O)n1CCN1CCC(C(=O)c2ccc(F)cc2)CC1
11,137 to 139 °C,CCOC(=NC(=O)NC)N1Cc2ccccc2-c2ccccc2C1
12,178 to 181 °C,Cc1ccc(Cn2c(C)cc(C)c(C#N)c2=O)cc1
13,140 to 141 °C,CCC(C)(NC(=O)c1cc(Cl)c(N)c(C=NOC)c1)C(=O)CCl (configuration not stated)
14,303 °C,N#Cc1c(N2CCN(C(=O)c3ccco3)CC2)c2cc(Cl)cnc2[nH]c1=O
15,227 to 229 °C,Cc1cc2c(-c3ccccc3C)c(NC(=O)Nc3ccc(F)cc3F)c(=O)n(C)c2cc1Cl
16,128 to 132 °C,Cc1ccc(C2=NNC(=O)CC2)cc1OCC1CO1 (configuration not stated)
17,116 to 119 °C,CCOC(=O)c1ccc(COc2cccc(NC(C)=O)c2C=O)cc1
18,190 °C,COc1ccc(Cl)cc1C(=O)NCCc1ccc(Br)c(S(N)(=O)=O)c1
19,147 °C,CCOc1ccc2[nH]c(=O)sc2c1
20,55 to 60 °C,O=c1ccc(S(=O)(=O)n2ccnc2)n[nH]1
21,167 to 169 °C,Cn1ccc2cc(Nc3cnccc3N)ccc21
22,197 to 198 °C,Cc1cc(C)cc(C(=O)c2c(C(C)C)c(=O)[nH]c(=O)n2Cc2ccnc(Cl)n2)c1
23,139 °C,COc1cccc(Oc2c(NS(=O)(=O)c3ccc(C(C)(C)C)cc3)nc(C)nc2OCCO)c1
24,94 to 95 °C,CC(C)N(C(=O)n1oc(=O)[nH]c1=O)c1ccc(F)cc1
25,53 to 57 °C,COC(=O)COC(=O)c1ccc(OCC(=O)OC)cc1
26,182 °C,CS(=O)(=O)CC(=O)N[C@H]1CC[C@H](CCN2CCN(c3nccc4ccoc34)CC2)CC1

row,melting point,SMILES
1,131 to 133 °C,Nc1ccc(C(=O)C[N+](=O)[O-])c(Cl)c1
2,129 °C,CC(=O)OC1CSC(Oc2cccc(-c3ccc(Cl)nc3)c2)C(OC(C)=O)C1OC(C)=O (configuration not stated)
3,107 to 108 °C,C=CNC(=O)C(C)(Cc1ccccc1)S(=O)(=O)CCCl (configuration not stated)
4,75 °C,C[C@]1(O)c2ccccc2CC[C@H]1O (relative stereo)
5,172 to 175 °C,CN(C(=O)c1ccc2nonc2c1)[C@H]1CC[C@H](n2ncnn2)CC1
6,168 to 169 °C,Cc1c(C)c2c(c(C)c1NC(=O)CC(C)(C)C)C(c1cccc(C3OCCO3)c1)CO2 (configuration not stated)
7,108 °C,CCOc1ccc2[nH]c(=O)n(N3CCN(C)CC3)c2c1
8,130 to 131 °C,CCOc1cccnc1CSCCNC(=C[N+](=O)[O-])NC
9,83 to 86 °C,CCCCCCCCCCCCc1cc2ccc(C(=O)OCC)cc2[nH]1
10,200 to 202 °C,O=[N+]([O-])c1ccc2c(c1)nc(/C=C/c1ccccc1)n2-c1ccccn1
11,220 °C,N#CNC(=NCCc1ccccc1Cl)c1cncc(NC(=O)c2ccccc2)c1
12,144 to 145 °C,NC(=O)C1CCc2ccc([N+](=O)[O-])cc21 (configuration not stated)
13,180 to 182 °C,Nc1nc(-c2ccc(CCNC(=O)C(F)(F)F)cc2)cs1
14,90 °C,CC(Cl)c1nc2ccccc2c(=O)o1 (configuration not stated)
15,102 to 104 °C,N#CCC(=O)NCc1ccccc1Cl
16,128 to 130 °C,COCCCOc1ccc(/C=C(\C)C(=O)O)c(Oc2ncc(Cl)cc2Cl)c1
17,> 270 °C,CCCn1c(=O)c2[nH]c(C3CCCC3)nc2n(CCc2ccc(NC(=O)C(C)C)cc2)c1=O
18,280 to 282 °C,O=C1CCc2ccc(NC(=O)c3cc4cccnc4n3Cc3cccc(F)c3)cc2N1
19,128 to 130 °C,CCOC(=O)c1c(CC(=O)O)n(-c2ccc(OC(F)(F)F)cc2)c2ccc(Oc3ncccc3C(N)=O)cc12
20,184 to 185 °C,Cc1ccc(-c2ccc(C(=O)c3ccc(Cl)cc3Cl)cc2)cc1
21,> 250 °C,CC1COc2c(Br)c(F)cc3c(=O)c(C(=O)O)cn1c23 (configuration not stated)
22,129 to 130 °C,CCOC(=O)C(O)=Cc1cc(CCc2ccc(F)cc2)ccn1
23,174 to 175 °C,COCc1nc2c(N)nc3ccccc3c2n1CC(C)(C)O
24,213 to 216 °C,COc1ccc(Nc2ccnc3nc(C)c(OC(=O)COC(C)=O)cc23)cc1
25,> 250 °C,O=[N+]([O-])c1cccc(-c2nc(Nc3cccc(Cl)c3)c3cc[nH]c3n2)c1
26,142 °C,O=C(NCc1ccc(Br)cc1)c1c(F)cccc1F

# Second part, the compound before the results:
row,SMILES,melting point
1,CCc1ccccc1NC=C1C(=O)N(c2cccc(-c3nnn[nH]3)c2)N=C1C,262 °C
2,O=C1c2cccc3cc4ccccc4c(c23)C(=O)N1CCCNCCN1C(=O)c2cccc3cc4ccccc4c(c23)C1=O,260 °C
3,NCCOc1nc2ccccc2n1C1CCN(C2(c3ccccc3)CCCCCC2)CC1,180 to 184 °C
4,Cn1cncc1C(O)(c1ccc(Cl)cc1)c1ccc2c(c1)C(c1cccc(Cl)c1)SCC(=O)N2CC1CC1 (configuration not stated),245 °C
5,CCS(=O)(=O)c1nsc(NC(=O)N(C)C)c1C#N,188 to 189 °C
6,O=C(C=Cc1ccccc1C(F)(F)F)C=Cc1ccccc1C(F)(F)F,131 to 133 °C
7,CN1CCCC1CCNc1nccc(Oc2ccc(NC(=O)c3cc(F)cc(N4CCCCC4)c3)c3ccccc23)n1 (configuration not stated),112 to 114 °C
8,O=C(c1ccc(F)cn1)N1CCC[C@H](c2noc(-c3ccc(F)cc3)n2)C1,93 to 95 °C
9,C=CCOC(=O)C(C#N)=C(SC)SC,36 to 37.5 °C
10,COc1ccc(C(=O)Nc2ccc(F)c(F)c2)cc1Nc1cccc(C(F)(F)F)c1,166 to 169 °C
11,COc1cc(C2=C(c3cn(C)c4ccccc34)C(=O)NC2=O)cc(OC)c1OC,187 °C
12,CCCCN(CCCC)c1nc(-c2ccc(C(C)(C)C)cc2)cs1,48.5 to 49.5 °C
13,COCC(C)Oc1cc(Oc2ccc(S(C)(=O)=O)nc2)cc2cc(C3=NCC(CC(N)=O)S3)[nH]c12 (configuration not stated),131 to 132 °C
14,O=C(CCCO)Nc1cccc(-c2cccc3cc(Cc4cccc(C(F)(F)F)c4)oc23)c1,134 to 135 °C
15,CC(C)(COc1c(-c2ccccc2)c(=O)oc2ccccc12)CN1CCOCC1,167 °C
16,CS(=O)(=O)c1ccc(/C=C2/C(=O)CCc3ccccc32)cc1,152 to 153 °C
17,CCCCn1ccc2cc(-c3ccc(C(F)(F)F)cc3)ccc21,52 to 53 °C
18,Cc1ncccc1-c1cncc(OC2SCC(O)C(O)C2O)c1 (configuration not stated),204 to 207 °C
19,CS(=O)(=O)c1ccc(-n2c(-c3ccc(F)cc3)nc(O)c(C#N)c2=O)cc1,> 285 °C
20,COc1cnc2c(C)ccc(-c3cccc(C(F)(F)F)c3)c2n1,119 to 121 °C
21,CS(=O)(=O)c1ccc(-c2cnn(-c3ccccc3F)c(=O)c2-c2ccc(F)cc2)cc1,96 to 103 °C
22,CSc1cc2ccc(-c3ccccc3)cc2cc1O,149 to 150 °C
23,COc1cc(COc2nn(-c3ccccc3)cc2C=O)ccc1OCc1nc(-c2cccnc2)oc1C,161 to 162 °C

row,SMILES,melting point
1,CC1CCNC(=C2C(=O)CC(C(C)C)CC2=O)N1 (configuration not stated),71 to 83 °C
2,CN(C(=O)C(C)(C)C)C1(c2ccccc2)CCNCC1,125 °C
3,COc1cc(-c2ccc(O)c(C3(C)CCCCC3)c2)cc(CC2SC(N3CCCC3)=NC2=O)c1OC (configuration not stated),227 to 230 °C
4,CON(C)Cc1nc2c(N)nc3cc(-c4cccnc4)cnc3c2n1CC(C)(C)O,187 to 189 °C
5,CC(C)N(CCC(C(N)=O)(c1ccccc1)C1CCCCN1)C(C)C (configuration not stated),107 to 108 °C
6,Cc1ccc(-c2c(C)c(NC(=O)CC(C)(C)C)c(C)c3c2OCC3c2ccc(C(C)C)cc2)cc1 (configuration not stated),194 to 195 °C
7,N#Cc1cccc(C2=Nc3cc(O)c(-c4ccccc4F)cc3NC(=O)C2)c1,> 250 °C
8,COc1ccc(C2NCCS2)cc1OC (configuration not stated),54 to 56 °C
9,CCNC(=O)c1ccc(N2CCN(Cc3cc(Cc4ccccc4)c4c(c3)NC(=O)C(C)O4)CC2)cc1 (configuration not stated),198 to 206 °C
10,CN(C)C(=O)OC1c2ccccc2C(=O)N1c1ccc2ccc(Cl)nc2n1 (configuration not stated),217 to 218 °C
11,CCCNC(=S)NCCC1Cc2ccc(-c3ccc(=O)[nH]n3)cc2C1 (configuration not stated),155 to 157 °C
12,CCN(CC)C(=O)n1cnc(S(=O)(=O)CC2CC2)n1,68 to 74 °C
13,Cc1c(-c2ccc(C3=CCN(C(=O)OC(C)(C)C)CC3)cc2)nc2n1CCc1ccccc1C2OC1CCN(C)CC1 (configuration not stated),171 °C
14,COC(=O)CCc1ccc(N(c2ccc(-c3ccc(N(c4ccc(CCC(=O)OC)cc4)c4cccc5ccccc45)cc3)cc2)c2cccc3ccccc23)cc1,117 to 120 °C
15,N#Cc1cnc2cc3c(cc2c1Nc1ccc(Oc2ccccc2)cc1)ncn3CCN1CCOCC1,> 260 °C
16,COc1cc(-c2ccc(O)c(C(C)(C)C)c2)cc(C=C2SC(N(C)C)=NC2=O)c1O,272 to 274 °C
17,CCn1nc(Cl)c(CS(=O)(=O)C2=NOC(C)(C)C2)c1Cl,105 to 107 °C
18,COc1ccc(-n2c(=O)c3c(c4cccnc42)OCC3)cc1,282 to 284 °C
19,COc1ccc(C(=O)c2ccc(OCc3nc(-c4ccccc4)oc3C)cc2)c(OC(C)(C)C(=O)O)c1,175 to 177 °C
20,COC(=O)c1nccn1C(c1ccccc1)(c1ccccc1)c1ccccc1,186 to 188 °C
21,COc1cc2c(cc1OC)CCCC(C(=O)N1CCN(Cc3cc(OC)c(OC)c(OC)c3)CC1CCCO)=C2 (configuration not stated),144 to 145 °C
22,CCOC(=O)c1cn(CCOC(C)=O)c2c(F)c(F)c(F)c(C)c2c1=O,192 to 193 °C

# Source: a melting point compilation (Tetko et al.; mined from patent text by program, amines drawn as free bases though some values may be those of a salt)
